# Values of other authors, collected in patent US12054562B2, “Cell-permeable inhibitory agent and methods of use thereof in treatment of cognitive and mood disorders” (priority 2015, dated 2024).
# Key:
# α5GABAA receptor [1] = molecular target: T1, α5GABAA receptor (Homo sapiens, UniProt P18507+P31644); details: cited from earlier work
# T1 sequence (P31644 32-462): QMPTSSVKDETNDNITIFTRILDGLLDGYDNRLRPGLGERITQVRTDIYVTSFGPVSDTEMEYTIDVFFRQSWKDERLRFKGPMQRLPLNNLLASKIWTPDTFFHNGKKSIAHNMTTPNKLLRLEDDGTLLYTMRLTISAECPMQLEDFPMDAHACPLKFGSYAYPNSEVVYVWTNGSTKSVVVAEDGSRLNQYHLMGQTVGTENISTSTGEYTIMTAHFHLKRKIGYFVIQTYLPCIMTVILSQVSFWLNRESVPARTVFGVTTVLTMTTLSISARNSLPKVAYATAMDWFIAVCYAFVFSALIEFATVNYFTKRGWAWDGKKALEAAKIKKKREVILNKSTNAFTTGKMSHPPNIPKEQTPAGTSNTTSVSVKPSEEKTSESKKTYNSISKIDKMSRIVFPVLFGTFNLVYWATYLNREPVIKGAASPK
# T1 sequence (P18507 40-467 limits assumed): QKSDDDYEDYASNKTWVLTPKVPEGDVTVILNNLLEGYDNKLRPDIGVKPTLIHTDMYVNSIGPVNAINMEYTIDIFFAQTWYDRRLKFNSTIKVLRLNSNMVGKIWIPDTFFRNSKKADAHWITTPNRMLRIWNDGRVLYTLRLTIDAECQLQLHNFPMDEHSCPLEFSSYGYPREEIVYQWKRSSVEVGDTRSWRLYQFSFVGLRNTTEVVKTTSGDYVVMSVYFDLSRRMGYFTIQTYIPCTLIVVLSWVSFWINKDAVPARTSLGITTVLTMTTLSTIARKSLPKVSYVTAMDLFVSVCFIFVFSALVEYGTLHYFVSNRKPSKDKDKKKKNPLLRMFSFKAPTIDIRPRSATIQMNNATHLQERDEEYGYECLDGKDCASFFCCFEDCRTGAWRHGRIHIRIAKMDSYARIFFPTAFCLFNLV
# T1 sequence (P28472 26-473 partner): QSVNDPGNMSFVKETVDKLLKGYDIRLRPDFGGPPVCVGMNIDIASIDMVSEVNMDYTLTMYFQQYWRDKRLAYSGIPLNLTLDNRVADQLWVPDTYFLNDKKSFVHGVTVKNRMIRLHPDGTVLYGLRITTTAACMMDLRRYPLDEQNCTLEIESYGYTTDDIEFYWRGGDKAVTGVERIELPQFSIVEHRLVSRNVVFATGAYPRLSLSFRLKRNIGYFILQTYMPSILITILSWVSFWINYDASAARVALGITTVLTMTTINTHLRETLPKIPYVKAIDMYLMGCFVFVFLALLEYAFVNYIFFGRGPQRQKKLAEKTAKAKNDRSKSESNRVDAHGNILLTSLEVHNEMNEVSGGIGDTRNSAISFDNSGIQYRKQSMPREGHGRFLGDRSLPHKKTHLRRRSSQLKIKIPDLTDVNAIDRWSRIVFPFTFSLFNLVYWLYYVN
# α5GABAA receptor [2] = molecular target: T1, α5GABAA receptor; details: cited from earlier work; remark: listed apart in the source
structure (smiles),measurement,setting,value
"CCOC(=O)c1ncn2c1[C@@H]1CCCN1C(=O)c1cc(OC)ccc1-2 [L-655,708]",efficacy for reducing α5GABAA receptor function,α5GABAA receptor [1],relatively low efficacy
same,selectivity for α5GABAA receptors,α5GABAA receptor [2],30-70 fold
